Test results as given in the supplement of paper PMC10307832.

Key:
Assay in all cases: relative viability (nuclei count vs DMSO), 5 days (fraction); higher = more cells survive
[1] = compound: CN(C)CC1=CC(=CC=C1)N=C(C2=CC=CC=C2)C3=C(NC4=C3C=CC(=C4)C(=O)N(C)C)O + CC(=O)Nc1cccc(-n2c(=O)n(C3CC3)c(=O)c3c(Nc4ccc(I)cc4F)n(C)c(=O)c(C)c32)c1 [Trametinib] (partner 0.02 µM)
In short: (§1)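 Each reported value is a median over duplicate plates. It expresses relative viability: treated-well nuclei count divided by vehicle-well nuclei count. Lung cancer cell lines in 1536-well plates were dosed by pin tool a day after seeding, alone with one drug or with a fixed anchor-drug dose plus five library-drug doses (not always all listed) in √10 steps, and nuclei were counted after 5 days.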

[2] = compound: CN(C)CC1=CC(=CC=C1)N=C(C2=CC=CC=C2)C3=C(NC4=C3C=CC(=C4)C(=O)N(C)C)O + N=C(N)NC(=N)NCCc1ccccc1 [Phenformin] (partner 250 µM)
In short: as §1

[3] = compound: CN(C)CC1=CC(=CC=C1)N=C(C2=CC=CC=C2)C3=C(NC4=C3C=CC(=C4)C(=O)N(C)C)O + COc1cccc2cc(-c3nc([C@H]4CC[C@H](C(=O)O)CC4)n4ncnc(N)c34)[nH]c12 [OSI-027] (partner 0.5 µM)
In short: as §1

[4] = compound: CN(C)CC1=CC(=CC=C1)N=C(C2=CC=CC=C2)C3=C(NC4=C3C=CC(=C4)C(=O)N(C)C)O
In short: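 Cells of lung cancer lines were placed in 1536-well plates and kept overnight at 37 °C. Pinning then delivered five library-drug doses (not always all listed), spaced by √10, onto plates anchored with vehicle, and the cells were left 5 days without changing medium. One step fixed, permeabilised and stained them with Hoechst, and MetaXpress counted nuclei in 4× images. Viability, as a median over plates, is treated-well nuclei divided by vehicle-well nuclei, with acceptance only at control CV below 25% and at least one doubling.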

| Cell Line | relative viability ([1]; first compound 0.08 µM) | relative viability ([1]; first compound 0.253 µM) | relative viability ([1]; first compound 0.8 µM) | relative viability ([1]; first compound 2.53 µM) | relative viability ([1]; first compound 8 µM) | relative viability ([2]; first compound 0.08 µM) | relative viability ([2]; first compound 0.253 µM) | relative viability ([2]; first compound 0.8 µM) | relative viability ([2]; first compound 2.53 µM) | relative viability ([2]; first compound 8 µM) | relative viability ([3]; first compound 0.08 µM) | relative viability ([3]; first compound 0.253 µM) | relative viability ([3]; first compound 0.8 µM) | relative viability ([3]; first compound 2.53 µM) | relative viability ([3]; first compound 8 µM) | relative viability ([4]; 0.08 µM) | relative viability ([4]; 0.253 µM) | relative viability ([4]; 0.8 µM) | relative viability ([4]; 2.53 µM) | relative viability ([4]; 8 µM) |
| --- | --- | --- | --- | --- | --- | --- | --- | --- | --- | --- | --- | --- | --- | --- | --- | --- | --- | --- | --- | --- |
| NCI-H441 | 0.495 | 0.508 | 0.354 | 0.444 | 0.462 | 0.828 | 0.816 | 0.784 | 0.878 | 0.886 | 0.522 | 0.703 | 0.74 | 0.568 | 0.39 | 1.03 | 1.14 | 1.2 | 0.984 | 0.923 |
| NCI-H460 | 0.142 | 0.133 | 0.195 | 0.0771 | 0.163 | 0.592 | 0.491 | 0.558 | 0.43 | 0.449 | 0.615 | 0.727 | 0.824 | 0.65 | 0.335 | 0.981 | 1.04 | 1.04 | 0.933 | 1.01 |
| NCI-H520 | 0.493 | 0.703 | 0.664 | 0.594 | 0.497 | 0.477 | 0.564 | 0.508 | 0.429 | 0.347 | 0.213 | 0.247 | 0.267 | 0.3 | 0.218 | 0.879 | 0.958 | 1.01 | 0.932 | 0.881 |
| NCI-H522 | 0.709 | 0.84 | 0.735 | 0.746 | 0.667 | 0.688 | 0.646 | 0.66 | 0.621 | 0.655 | 0.68 | 0.693 | 0.694 | 0.651 | 0.643 | 1.1 | 1.01 | 0.829 | 0.958 | 0.913 |
| NCI-H596 | 0.809 | 0.873 | 0.921 | 0.821 | 0.723 | 0.693 | 0.625 | 0.769 | 0.806 | 0.742 | 0.738 | 1.03 | 0.639 | 0.744 | 0.659 | 1.05 | 0.973 | 0.975 | 1.01 | 0.882 |
| NCI-H647 | 0.463 | 0.492 | 0.434 | 0.388 | 0.299 | 0.521 | 0.539 | 0.463 | 0.555 | 0.318 | 0.711 | 0.772 | 0.754 | 0.461 | 0.539 | 0.997 | 0.864 | 0.888 | 0.909 | 0.78 |
| NCI-H650 | 0.974 | 1.17 | 0.975 | 0.812 | 0.964 | 0.49 | 0.495 | 0.459 | 0.43 | 0.433 | 0.529 | 0.561 | 0.583 | 0.507 | 0.42 | 0.941 | 1.02 | 1.1 | 0.963 | 0.782 |
| NCI-H661 | 0.565 | 0.551 | 0.54 | 0.591 | 0.592 | 0.274 | 0.284 | 0.244 | 0.293 | 0.262 | 0.718 | 0.679 | 0.665 | 0.718 | 0.567 | 0.975 | 1.05 | 1.01 | 0.958 | 0.941 |
| NCI-H727 |  | 0.368 | 0.428 | 0.391 | 0.426 | 0.595 | 0.474 | 0.53 | 0.578 | 0.573 | 0.72 | 0.581 | 0.59 | 0.573 | 0.537 | 0.921 | 0.962 | 0.891 | 1.02 | 0.821 |
| NCI-H838 | 0.528 | 0.51 | 0.494 | 0.473 | 0.431 | 0.57 | 0.584 | 0.585 | 0.537 | 0.503 | 0.347 | 0.469 | 0.513 | 0.417 | 0.354 | 1 | 0.976 | 0.977 | 0.902 | 0.785 |
| NCI-H1355 | 0.472 | 0.407 | 0.314 | 0.392 | 0.51 | 0.483 | 0.463 | 0.421 | 0.421 | 0.392 | 0.463 | 0.457 | 0.393 | 0.491 | 0.329 | 1.03 | 0.992 | 0.836 | 0.993 | 0.979 |
| NCI-H1395 | 0.983 | 0.96 | 1.16 | 1 | 0.892 | 0.377 | 0.488 | 0.465 | 0.417 | 0.417 | 0.647 | 0.813 | 0.711 | 0.62 | 0.628 | 0.87 | 0.976 | 1.04 | 0.774 | 0.875 |
| NCI-H1437 | 0.574 | 0.53 | 0.475 | 0.572 | 0.656 | 0.269 | 0.298 | 0.335 | 0.349 | 0.36 | 1.02 | 0.917 | 0.983 | 0.877 | 0.942 | 1.05 | 0.977 | 1.04 | 1.02 | 1.05 |
| NCI-H1650 | 0.69 | 0.569 | 0.63 | 0.604 | 0.601 | 0.481 | 0.55 | 0.412 | 0.49 | 0.4 | 0.756 | 0.686 | 0.612 | 0.714 | 0.524 | 0.967 | 0.961 | 0.982 | 1.04 | 0.909 |
